# Measurements from patent publication US20240252510A1, “COMPOSITION CONTAINING HOMOHARRINGTONINE AS ACTIVE INGREDIENT FOR PREVENTING OR TREATING MUSCLE DISEASES” (RESEARCH COOPERATION FOUNDATION OF YEUNGNAM UNIVERSITY, priority 2021, published 2024).
# “Also recorded” adds a separate entry of the source.
# Key:
# [1] = system: animal model with lower limb fixation-induced muscular atrophy; test: Animal model with lower limb fixation-induced muscular atrophy: body weight, dietary intake, muscle weights; type: in vivo, C57BL/6 male mice; conditions: lower limb fixation mice; 0.545 μg/g i.p. three times a week for 4 weeks; vs phosphate-buffered saline group
# Experimental: 8-week-old C57BL/6 male mice were adapted to the breeding environment for 1 week and then treated with homoharringtonine for 1 week, and the left lower limb was fixed using a stapler and maintained for 3 weeks. The animal model with lower limb fixation-induced muscular atrophy is an animal model for inducing muscular atrophy by reducing a load of body weight, and induction was conducted using a skin stapler (Manipler AZ, Utsunomiya, Tochigi, Japan) according to a method of Caron et al. (A novel hindlimb immobilization procedure for studying skeletal muscular atrophy and recovery in mouse. J Appl Physiol. 2009 June; 106(6):2049-59.). The unfixed right side was used as a control group.
# For a total of 4 weeks from 1 week before fixation to 3 weeks of fixation, phosphate-buffered saline was administered to the control group and homoharringtonine (0.545 μg/g body weight) was administered to the experimental group three times a week intraperitoneally.
# [2] = system: old mice; test: Old mouse model: body weight, dietary intake, gastrocnemius weight; type: in vivo, 18-month-old C57BL/6 mice
# Experimental: An 18-month-old C57BL/6 was purchased, and maintained in the same breeding environment as above the high-fat diet-induced animal model, and fed with a normal chow diet during the experiment. After adapting the old mice to the breeding environment for 1 week, they were randomly divided into a control group and an experimental group, and phosphate-buffered saline was administered to the control group and homoharringtonine (0.545 μg/g body weight) was administered to the experimental group intraperitoneally three times a week for more than 4 months.
structure (smiles),measurement,setting,value
COC(=O)C[C@](O)(CCCC(C)(C)O)C(=O)O[C@@H]1C(OC)=C[C@]23CCCN2CCc2cc4c(cc2[C@H]13)OCO4 [homoharringtonine],body weight,[1],no statistically significant difference
same,body weight,"[2]; 0.545 μg/g i.p. three times a week, vs phosphate-buffered saline group",did not show a significant difference; also recorded: no statistically significant difference
same,body weight after 6 months of administration,"[2]; another experimental group, 6 months of injection, vs control group",no significant difference
